The structures appear in SMILES notation.

Drawing on patent US9145415B2, “Nitrogen-containing heterocyclic compound or salt thereof” (FUJIFILM Corporation, priority 2012, dated 2015), this text covers IC50 for 28 compounds.

The subject of one assay is MV4-11 cells. Briefly: Leukemia cell proliferation inhibition test (ATPlite), MV4-11. The class given is cell-based. The following applies: Homo sapiens, MV4-11, 72 h, MV4-11, 72 hours culture, ATPlite; GI50 per method; read-out: MV4-11 cell proliferation inhibition effect. In outline:
(§1)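 Molm-13 or MV4-11 cells in RPMI with 10% FBS and pen/strep, seeded at 10,000 cells per well, were exposed to serially diluted compound for 72 hours at 37° C, 5% CO2. Total cellular ATP was read by luciferase luminescence. GI50 came from sigmoid fits against the 0.1% DMSO control, in duplicate.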
On the technique in general: In ATP-based viability assays light output follows the ATP content of the culture.

Assay [1] deals with T1, human FLT3 protein (FLT3 (WT)) (Homo sapiens, UniProt P36888).
T1 construct: human FLT3 protein (intracellular region, 564 to 993 aa); GST; purchased Carna Biosciences; host or cells: baculovirus expression system
T1 sequence (P36888 564-993): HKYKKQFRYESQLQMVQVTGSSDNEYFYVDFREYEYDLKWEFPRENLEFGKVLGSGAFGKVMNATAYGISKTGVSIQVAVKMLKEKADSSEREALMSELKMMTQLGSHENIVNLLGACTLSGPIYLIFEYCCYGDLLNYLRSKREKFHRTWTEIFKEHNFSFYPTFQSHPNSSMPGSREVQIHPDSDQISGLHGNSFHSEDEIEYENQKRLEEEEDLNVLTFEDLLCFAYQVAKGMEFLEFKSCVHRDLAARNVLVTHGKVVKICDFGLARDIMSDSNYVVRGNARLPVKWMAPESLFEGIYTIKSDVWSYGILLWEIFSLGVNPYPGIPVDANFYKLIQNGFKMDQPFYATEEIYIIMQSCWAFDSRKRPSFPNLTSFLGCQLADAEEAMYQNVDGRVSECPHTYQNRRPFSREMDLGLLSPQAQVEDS
The assay is described as follows: FLT3 inhibition test (FLT3 enzyme inhibition, time-resolved fluorescence of substrate peptide phosphorylation). Format: biochemical. Conditions: GST-fused human FLT3 (564 to 993 aa), ATP 50 μM; read-out: FLT3 (WT) enzyme inhibition activity. In outline: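 Wild-type human FLT3 (1.2 μg) pre-incubated with compound 15 min at 25° C in 100 mM HEPES pH 7.5, 10 mM MgCl2, 25 mM NaCl, 1 mM DTT. Reaction started with substrate peptide and ATP (final 50 μM), run 30 min at 25° C; phosphorylation read by time-resolved fluorescence.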

Another assay deals with Molm-13 cells. The assay is described as follows: Leukemia cell proliferation inhibition test (ATPlite), Molm-13. The following applies: Homo sapiens, MOLM-13, 72 h, Molm-13, 72 hours culture, ATPlite; GI50 per method; read-out: MOLM13 cell proliferation inhibition effect. The class given is cell-based. In outline:
as §1

In the case of `CCCNc1nc(Nc2ccc(C#N)cc2)ncc1C#CCCCNC(=O)CNC(=O)/C=C/CN(C)C` [Compound 7-57], the IC50 (with MV4-11 cells; in assay [1]; with Molm-13 cells) was less than 10 nM each time.
Turning to `CCCNc1nc(Nc2cccc(F)c2)ncc1C#CCCCNC(=O)[C@@H]1C[C@@H](OC)CN1C(=O)/C=C/CN(C)C` [Compound 7-58], the IC50 (in the assay with MV4-11 cells; in assay [1]; with Molm-13 cells) was less than 10 nM in each case.
For `CCCNc1nc(Nc2cccc(F)c2)ncc1C#CCCCNC(=O)[C@@H]1C[C@H](OC)CN1C(=O)/C=C/CN(C)C` [Compound 7-59], the IC50 (with MV4-11 cells; in assay [1]; in the assay with Molm-13 cells) was less than 10 nM throughout.
As to `CCCNc1nc(Nc2ccc(C#N)cc2)ncc1C#CCCCNC(=O)[C@@H]1C[C@@H](OC)CN1C(=O)/C=C/CN(C)C` [Compound 7-60], the IC50 (in the assay on MV4-11 cells; in assay [1]; in the assay on Molm-13 cells) was less than 10 nM each time.
Turning to `CCCNc1nc(Nc2ccc(C#N)cc2)ncc1C#CCCCNC(=O)[C@@H]1C[C@H](OC)CN1C(=O)/C=C/CN(C)C` [Compound 7-61], the IC50 (with MV4-11 cells; in assay [1]; in the assay on Molm-13 cells) was less than 10 nM throughout.
`CCCNc1nc(Nc2ccc(C#N)cc2)ncc1C#CCCCNC(=O)[C@H](CO)N(C)C(=O)/C=C/CN(C)C` [Compound 7-62, (S,E)-N-(1-((5-(2-((4-Cyanophenyl)amino)-4-(propylamino)pyrimidin-5-yl)-4-pentyn-1-yl)amino)-3-hydroxy-1-oxopropan-2-yl)-4-(dimethylamino)-N-methyl-2-butenamide]: the IC50 (in the assay with MV4-11 cells; in assay [1]; with Molm-13 cells) was less than 10 nM each time.
Regarding `CCCNc1nc(Nc2ccc(C#N)cc2)ncc1C#CCCCNC(=O)[C@H]([C@@H](C)O)N(C)C(=O)/C=C/CN(C)C` [Compound 7-63], the IC50 (in the assay on MV4-11 cells; in assay [1]; in the assay with Molm-13 cells) was less than 10 nM in each case.
`CCCNc1nc(Nc2ccc(C#N)cc2)ncc1C#CCCCNC(=O)CN(CCC)C(=O)/C=C/CN(C)C` [Compound 7-64]: the IC50 (in the assay with MV4-11 cells; in assay [1]; with Molm-13 cells) was less than 10 nM in each case.
For `CCCNc1nc(Nc2ccc(C#N)cc2)ncc1C#CCCCNC(=O)CN(CC(C)C)C(=O)/C=C/CN(C)C` [Compound 7-65], the IC50 (in the assay with MV4-11 cells; in assay [1]; in the assay on Molm-13 cells) was less than 10 nM in each case.
With `CCCNc1nc(Nc2cccc(F)c2)ncc1C#CCCCNC(=O)[C@@H]1C[C@@H](O)CN1C(=O)/C=C/CN(C)C` [Compound 7-66, (2S,4R)-1-((E)-4-(Dimethylamino)-2-butenoyl)-N-(5-(2-((3-fluorophenyl)amino)-4-(propylamino)pyrimidin-5-yl)-4-pentyn-1-yl)-4-hydroxypyrrolidine-2-carboxamide], the IC50 (in the assay with MV4-11 cells; in assay [1]; in the assay with Molm-13 cells) was less than 10 nM throughout.
Take `CCCNc1nc(Nc2cccc(F)c2)ncc1C#CCCCNC(=O)[C@@H]1C[C@H](O)CN1C(=O)/C=C/CN(C)C` [Compound 7-67]: the IC50 (in the assay on MV4-11 cells; in assay [1]; with Molm-13 cells) was less than 10 nM in each case.
For the compound `CCCNc1nc(Nc2ccc(C#N)cc2)ncc1C#CCCCNC(=O)[C@@H]1C[C@@H](O)CN1C(=O)/C=C/CN(C)C` [Compound 7-68], the IC50 (in the assay on MV4-11 cells; in assay [1]; in the assay with Molm-13 cells) was less than 10 nM each time.
On to `CCCNc1nc(Nc2ccc(C#N)cc2)ncc1C#CCCCNC(=O)[C@@H]1C[C@H](O)CN1C(=O)/C=C/CN(C)C` [Compound 7-69], for which the IC50 (in the assay on MV4-11 cells; in assay [1]; in the assay with Molm-13 cells) was less than 10 nM throughout.
For the compound `CCCCN(CC(=O)NCCCC#Cc1cnc(Nc2ccc(C#N)cc2)nc1NCCC)C(=O)/C=C/CN(C)C` [Compound 7-70], the IC50 (with MV4-11 cells; in assay [1]; with Molm-13 cells) was less than 10 nM throughout.
Take `CCCCCN(CC(=O)NCCCC#Cc1cnc(Nc2ccc(C#N)cc2)nc1NCCC)C(=O)/C=C/CN(C)C` [Compound 7-71]: the IC50 (in the assay with MV4-11 cells; in assay [1]; in the assay with Molm-13 cells) was less than 10 nM in each case.
With `CNc1nc(Nc2cccc(F)c2)ncc1C#CCCCNC(=O)[C@@H]1C[C@H](F)CN1C(=O)/C=C/CN(C)C` [Compound 7-72, (2S,4S)-1-((E)-4-(Dimethylamino)-2-butenoyl)-4-fluoro-N-(5-(2-((3-fluorophenyl)amino)-4-(methylamino)pyrimidin-5-yl)-4-pentyn-1-yl)pyrrolidine-2-carboxamide], the IC50 (in the assay with MV4-11 cells; in assay [1]; with Molm-13 cells) was less than 10 nM in each case.
As for `CNc1nc(Nc2cccc(F)c2)ncc1C#CCCCNC(=O)[C@@H]1C[C@H](OC)CN1C(=O)/C=C/CN(C)C` [Compound 7-73, (2S,4S)-1-((E)-4-(Dimethylamino)-2-butenoyl)-N-(5-(2-((3-fluorophenyl)amino)-4-(methylamino)pyrimidin-5-yl)-4-pentyn-1-yl)-4-methoxypyrrolidine-2-carboxamide], the IC50 (in the assay on MV4-11 cells; in assay [1]; in the assay on Molm-13 cells) was less than 10 nM in each case.
On to `CNc1nc(Nc2cccc(F)c2)ncc1C#CCCCNC(=O)[C@@H]1C[C@H](O)CN1C(=O)/C=C/CN(C)C` [Compound 7-74], for which the IC50 (with MV4-11 cells; in assay [1]; with Molm-13 cells) was less than 10 nM in each case.
Regarding `CNc1nc(Nc2cccc(C#N)c2)ncc1C#CCCCNC(=O)[C@@H]1C[C@H](F)CN1C(=O)/C=C/CN(C)C` [Compound 7-75], the IC50 (with MV4-11 cells; in assay [1]; in the assay on Molm-13 cells) was less than 10 nM each time.
On to `CNc1nc(Nc2cccc(C#N)c2)ncc1C#CCCCNC(=O)[C@@H]1CCCN1C(=O)/C=C/CN(C)C` [Compound 7-76], for which the IC50 (with MV4-11 cells; in assay [1]; in the assay on Molm-13 cells) was less than 10 nM throughout.
As to `CNc1nc(Nc2cccc(F)c2)ncc1C#CCCCNC(=O)[C@@H]1CCCN1C(=O)/C=C/CN(C)C` [Compound 7-77], the IC50 (with MV4-11 cells; in assay [1]; with Molm-13 cells) was less than 10 nM in each case.
In the case of `CCCNc1nc(Nc2cc(C)no2)ncc1C#CCCCNC(=O)[C@H](C)N(C)C(=O)/C=C/CN(C)C` [Compound 7-78], the IC50 in the assay on MV4-11 cells is less than 10 nM; in assay [1], less than 10 nM; in the assay with Molm-13 cells, 10 to 100 nM.
For the compound `CCCNc1nc(Nc2cc(C)no2)ncc1C#CCCCNC(=O)[C@@H]1CCCN1C(=O)/C=C/CN(C)C` [Compound 7-79], the IC50 (in the assay on MV4-11 cells; in assay [1]; with Molm-13 cells) was less than 10 nM each time.
With `CNc1nc(Nc2ccc(F)cc2)ncc1C#CCCCNC(=O)[C@@H]1C[C@H](F)CN1C(=O)/C=C/CN(C)C` [Compound 7-80, (2S,4S)-1-((E)-4-(Dimethylamino)-2-butenoyl)-4-fluoro-N-(5-(2-((4-fluorophenyl)amino)-4-(methylamino)pyrimidin-5-yl)-4-pentyn-1-yl)pyrrolidine-2-carboxamide], the IC50 (in the assay on MV4-11 cells; in assay [1]; with Molm-13 cells) was less than 10 nM in each case.
For `CNc1nc(Nc2ccc(F)cc2)ncc1C#CCCCNC(=O)[C@@H]1C[C@@H](F)CN1C(=O)/C=C/CN(C)C` [Compound 7-81, (2S,4R)-1-((E)-4-(Dimethylamino)-2-butenoyl)-4-fluoro-N-(5-(2-((4-fluorophenyl)amino)-4-(methylamino)pyrimidin-5-yl)-4-pentyn-1-yl)pyrrolidine-2-carboxamide], the IC50 (in the assay with MV4-11 cells; in assay [1]; in the assay with Molm-13 cells) was less than 10 nM each time.
As for `CNc1nc(Nc2ccc(F)cc2)ncc1C#CCCCNC(=O)[C@@H]1C[C@H](OC)CN1C(=O)/C=C/CN(C)C` [Compound 7-82], the IC50 (with MV4-11 cells; in assay [1]; in the assay with Molm-13 cells) was less than 10 nM each time.
Take `CNc1nc(Nc2ccc(F)cc2)ncc1C#CCCCNC(=O)[C@@H]1C[C@@H](OC)CN1C(=O)/C=C/CN(C)C` [Compound 7-83, (2S,4R)-1-((E)-4-(Dimethylamino)-2-butenoyl)-N-(5-(2-((4-fluorophenyl)amino)-4-(methylamino)pyrimidin-5-yl)-4-pentyn-1-yl)-4-methoxypyrrolidine-2-carboxamide]: the IC50 (in the assay on MV4-11 cells; in assay [1]; in the assay with Molm-13 cells) was less than 10 nM in each case.
With `CNc1nc(Nc2ccc(F)cc2)ncc1C#CCCCNC(=O)[C@@H]1C[C@H](O)CN1C(=O)/C=C/CN(C)C` [Compound 7-84], the IC50 (with MV4-11 cells; in assay [1]; in the assay with Molm-13 cells) was less than 10 nM in each case.
